Assay results from patent US10130604B2, “Composition and method for treating neurodegenerative disease” (priority 2012, dated 2018).
Where two headings read alike, the source gives them in different places.

How the values were obtained:
[1] = system: Y39C-α-synuclein transgenic mice; test: Rotarod test in Y39C-α-synuclein transgenic mice treated with glycerol phenylbutyrate; format: in vivo, mouse
Protocol: Transgenic mice were genetically programmed from birth to develop a “Parkinson-Plus” condition by depositing an abnormal form of a protein called Y39C-α-synuclein in neurons of the brain under control of the Thy1 promoter (see Zhou et al., J. Biol. Chem., 2008, 283, 9863-70). […] After 6 weeks of daily treatment, animals were placed on a rotating rod (Rotarod) at different speeds for up to 5 minutes. Animals which could not keep up with the turning rod fell off. The time they were able to stay on the rod was noted. […] These differences were statistically significant at the higher speeds, 21 and 26 rpm. At the highest speed, 33 rpm, all animals fell off the rod after about 50 seconds.

[2] = gut; cited from earlier work
[3] = system: DJ-1; details: N27 cells, two days treatment, Western blot
Protocol: Dopaminergic cells derived from embryonic day 12 rat mesencephalon and immortalized with the SV40 large T antigen designated 1RB3AN27, (N27 cells) were used (37). […] Cells were lysed in a dissociation buffer containing 50 mM Tris-HCl, 10 mM NaCl, 0.1% Triton X-100 plus protease inhibitor cocktail (Roche). […] Protein concentration was determined by the BCA method (Pierce). Fifty μg of protein was separated on 10% SDSPAGE gel and transferred to a nitrocellulose membrane. […] Blots were incubated with HRP-conjugated secondary antibody (1:10,000; Jackson Immune Research), followed by chemiluminescent detection (Perkin Elmer life Sciences) (31,38).

[4] = system: DJ-1; details: C57BL/6 mice, drinking water, two weeks, vs control
Protocol: (§1) Cells were lysed in a dissociation buffer containing 50 mM Tris-HCl, 10 mM NaCl, 0.1% Triton X-100 plus protease inhibitor cocktail (Roche). The mouse brain tissues were dissected and quickly frozen in dry ice. Tissues were thawed on ice and homogenized in dissociation buffer with protease inhibitors (Roche). Protein concentration was determined by the BCA method (Pierce). Fifty μg of protein was separated on 10% SDSPAGE gel and transferred to a nitrocellulose membrane. After blocking nonspecific binding, membranes were incubated with antibodies to DJ-1 (1:5000, Chemicon), α-synuclein (1:3000, Transduction Laboratories), TH (1;2000, PelFreez), and β-actin (1:4000, Sigma). Blots were incubated with HRP-conjugated secondary antibody (1:10,000; Jackson Immune Research), followed by chemiluminescent detection (Perkin Elmer life Sciences) (31,38).
(§2) Adult C57BL/6 mice (4-6 months old) were treated with PB and SB in drinking water for 14 days. The PB and SB were dissolved in water at concentrations of 500, 1000, 1500, and 2000 mg/L. Mice typically drink 4-5 ml of water per day, and their drinking volumes were not affected by the addition of PB or SB. Control animals received water with sodium chloride added to the same molarity as the sodium in the drug-treated animals. […]

[5] = system: DJ-1; details: HEK293 reporter cells, 48 hr treatment
Protocol: Cells were lysed in a dissociation buffer containing 50 mM Tris-HCl, 10 mM NaCl, 0.1% Triton X-100 plus protease inhibitor cocktail (Roche). […] Protein concentration was determined by the BCA method (Pierce). Fifty μg of protein was separated on 10% SDSPAGE gel and transferred to a nitrocellulose membrane. After blocking nonspecific binding, membranes were incubated with antibodies to DJ-1 (1:5000, Chemicon), α-synuclein (1:3000, Transduction Laboratories), TH (1;2000, PelFreez), and β-actin (1:4000, Sigma). Blots were incubated with HRP-conjugated secondary antibody (1:10,000; Jackson Immune Research), followed by chemiluminescent detection (Perkin Elmer life Sciences) (31,38).
The luciferase assay was based on the pGLuc-Basic vector (NEB). The human DJ-1 2 kb promoter area was amplified by PCR using genomic DNA from HEK293 cells. The human DJ-1 promoter was then cloned into the pGLuc-Basic vector, and that reporter vector was transfected into HEK293 cells. G418 (200 μg/ml) was applied to the cultures, and resistant clones were selected and assayed for luciferase activity. […] Culture medium samples (20 μl) were incubated with Gaussia luciferase assay substrate (NEB), and luminescence was measured in a 96-well plate reader (BioTek Synergy HT Multi-Mode microplate reader).

[6] = system: α-synuclein; details: C57BL/6 mice, drinking water, two weeks
Protocol: as §1, §2

[7] = system: human DJ-1 promoter; test: Human DJ-1 promoter-luciferase reporter assay in HEK293 cells; format: cell-based; details: 48 hr treatment
Excerpt: The human DJ-1 2 kb promoter area was amplified by PCR using genomic DNA from HEK293 cells. The human DJ-1 promoter was then cloned into the pGLuc-Basic vector, and that reporter vector was transfected into HEK293 cells.

[8] = system: Nrf2; details: N27 dopamine neurons
[9] = cited from earlier work
[10] = system: dopamine neurons; details: vs MPTP alone
Protocol: Treatment with PB continued after MPTP injection. […] One week after MPTP lessoning, mouse brain tissues were dissected for Western blot and HPLC analysis. Mouse striatum was frozen in dry ice, sonicated in ice-cold 0.2 m perchloric acid and centrifuged at 15,000 g for 15 min at 4° C. An aliquot (5 μL) of the supernatant solution was analyzed by HPLC equipped with an electrochemical detector (CoulArray system ESA Model 5600; ESA, Boston, Mass., USA), a pump (ESA Model 580) set at 1.5 mL/min, and a reverse-phase C18 column (3 μm, 100 Å 4.6 mm, Waters, Milford, Mass., USA). The mobile phase was composed of 100 mm citric acid, 2% methanol, 1 mm EDTA and 5 mg/L sodium octyl sulfate (pH 3.0).

[11] = system: Y39C α-synuclein transgenic mice; details: 1000 mg/L drinking water, 6 and 12 weeks
Protocol: The [MUT] α-synuclein transgenic mice were divided into younger (6-8 months=Young Tg) and older (10-12 months=Old Tg) groups. Each group received PB (1000 mg/L, 5.4 mM) or vehicle (NaCl) in the drinking water for 3 months. Animals were tested for rotarod and water maze performance after 6-weeks and 12-weeks of treatment. Spatial learning was assessed using the Morris water maze. The maze included a circular tank (120 cm in diameter) filled to 10 cm below the edge of the tank with 27° C. water that was made opaque by the addition of non-toxic black ink. A circular escape platform (10 cm in diameter) was located 1 cm below the surface of the water in a constant location in the northwest quadrant of the tank. Mice were first acclimated to the maze during three trial habituation sessions. Each testing session consisted of three consecutive days with four trials per day. The platform was invisible in the pool, and mice were allowed to swim for 60 sec before being returned to the home cage. The latency from all training and testing sessions was collected.

[12] = system: Vamp2; details: A53T human α-synuclein overexpression plus phenylbutyrate
[13] = system: N27 cells; details: shDJ-1 N27 cells; H2O2 75 or 100 μM, 6-OHDA 60 or 80 μM
[14] = system: N27 cells
[15] = system: Y39C α-synuclein transgenic mice; details: 1000 mg/L drinking water, 6 and 12 weeks; remark: listed apart in the source
Protocol: The [MUT] α-synuclein transgenic mice were divided into younger (6-8 months=Young Tg) and older (10-12 months=Old Tg) groups. Each group received PB (1000 mg/L, 5.4 mM) or vehicle (NaCl) in the drinking water for 3 months. Animals were tested for rotarod and water maze performance after 6-weeks and 12-weeks of treatment. Mice were tested for their ability to run on a 3 cm diameter rotating rod (rotarod) at speeds ranging from 3 to 33 rpm. The protocol consisted of two phases: habituation (Day 1) and rotated training/testing (Days 2 to 5). During habituation on Day 1, the mice were trained to remain on the rotarod at 3 rpm. […] Each test day, the speed was increased, reaching 33 rpm by Day 5. The time the mice spent on the rotarod without falling was recorded for each trial.

[16] = system: N27 cells; details: two days pretreatment, then A53T α-synuclein adenovirus two days
[17] = system: Lamp2
[18] = 1000 mg/L drinking water, Western blot

O=C(CCCc1ccccc1)OCC(COC(=O)CCCc1ccccc1)OC(=O)CCCc1ccccc1 [glycerol phenylbutyrate, Glycerol phenylbutyrate]
time able to stay on the rotating rod ([1]; 6 weeks daily treatment, vs glycerol, significant at 21 and 26 rpm): able to stay on the rod longer
time until animals fell off the rod at the highest speed ([1]; 33 rpm, all animals): about 50 seconds
metabolism of the pro-drug [2]: metabolized in the gut to produce the active compound phenylbutyrate

CCCC(=O)[O-].[Na+] [sodium butyrate]
DJ-1 protein levels [3]: 300 % of control
brain DJ-1 levels [4]: significantly increased DJ-1 levels
DJ-1 protein levels [5]: increased
α-synuclein concentrations in brain [6]: not changed
luciferase activity [7]: increased luciferase activity

O=C([O-])CCCc1ccccc1.[Na+] [sodium phenylbutyrate]
increase in Nrf2 mRNA [8]: 50 fold
half-life in vivo [9]: 50 min
striatal dopamine levels (HPLC) ([10]; 1000 mg/L drinking water two weeks before MPTP): significantly increased striatal dopamine levels
DJ-1 levels in striatum [10, 18]: significantly increased
tyrosine hydroxylase protein levels in striatum [10, 18]: increased
numbers of TH positive dopamine neurons in the substantia nigra ([10]; 1000 mg/L drinking water): significantly higher numbers of TH positive dopamine neurons
water maze performance, Young Tg mice [11]: did not change water maze performance
water maze function, Old Tg mice ([11]; vs vehicle): prevented the age-related decline in water maze function
Vamp2 overexpression, A53T with addition of phenylbutyrate [12]: 200 fold
neuroprotective effect against H2O2 and 6-OHDA-induced toxicity after DJ-1 knockdown [13]: effectively abolished the neuroprotective effect
cell viability in naïve N27 cells ([14]; H2O2 75 or 100 μM, 6-OHDA 60 or 80 μM): significantly improved cell viability
cell survival ([14]; cells exposed to H2O2 and A53T, not shown): substantially better
motor function (rotarod), Young Tg mice [15]: did not change motor function
motor function (rotarod), Old Tg mice ([15]; vs vehicle): significantly improved motor function
cell viability after A53T mutant α-synuclein expression [16]: increased cell viability
number of cells with α-synuclein aggregates [16]: reduced the number of cells with α-synuclein aggregates
luciferase activity [7]: increased luciferase activity
increase in Lamp2 gene expression, with A53T ([17]; A53T expression plus phenylbutyrate): 400 fold
increase in Lamp2 expression ([17]; N27 dopamine neurons, drug alone): about 30 fold
increase in Lamp2 expression, pretreatment followed by H2O2 ([17]; pretreatment 48 hr, then H2O2): 200 fold
